From patent US4269842A, “Method for treating rhinoviral complaints” (Rhone-Poulenc Industries, priority 1979, dated 1981)
In brackets after ≈: the same amount, converted by molar mass.

Key:
in vitro = assay type: cell-based; conditions: human, mcr-5 fibroblasts
[1] = system: Rhinovirus type 1 A (R 2060 strain); assay: Inhibition of cytopathogenic effect of rhinovirus type 1 A in human fibroblast cultures; assay type: cell-based, human rhinovirus type 1 A; conditions: Enterovirus, 37° C., 3-4 days; for inhibition at 15 µg/mL: Fibroblast, at 15 μg/cm^3, human fibroblasts, read-out: Inhibition of cytopathogenic effect, Rhinovirus type 1 A (printed in minimum inhibitory concentration column); for MIC: human fibroblasts, prevention of cytopathogenic effect, read-out: Minimum inhibitory concentration, Rhinovirus type 1 A
Protocol: (§1) The type 1 A (R 2060 strain) and type 1 B (R 1112 strain) human rhinoviruses have the property of forming foci of necrosis (cytopathogeniceffect) on single-layer cell cultures. The compounds of the formula (I), which prevent the formation of these foci, have been selected as active substances.
(§2) Decreasing concentrations of the same solution or suspension of the compound under test are added to fresh identical cell cultures, the highest concentration being the maximum non-cytotoxic concentration. About one hour after the compounds have been added, the cultures are inoculated with 0.2 cm^3 of a suitably diluted suspension of virus (in isotonic phosphate buffer), which is capable of destroying about 75% of cells (cytopathogenic effect). 5 Control cultures (without test compound) are also inoculated. All the cultures are then incubated at 37° C. in a "roller" tissue culture apparatus at the same time as 2 control cultures (without test compound or virus) which have received 0.2 cm^3 of isotonic phosphate buffer. 3-4 Days after the start of the experiment, the cytopathogenic effect of the virus is examined under a microscope. The active compounds are those which have prevented the appearance of the cytopathogenic effect, and those which have inhibited it by at least 50% are considered to be partially active.

[2] = system: Rhinovirus type 1 B (R 1112 strain); assay: Inhibition of cytopathogenic effect of rhinovirus type 1 B in human fibroblast cultures; assay type: cell-based, human rhinovirus type 1 B; conditions: Enterovirus, human fibroblasts, 37° C., 3-4 days, prevention of cytopathogenic effect, read-out: Minimum inhibitory concentration, Rhinovirus type 1 B
Protocol: as §1, §2

Compound | MNTC (in vitro) | inhibition at 15 µg/mL [1] | MIC [2] | MIC [1]
Clc1ncccc1N=C1SC[C@@H]2Cc3ccccc3CN12 [Compound 2, (S)-3-[(2-chloropyrid-3-yl)-imino]-1,5,10,10a-tetrahydrothiazolo[3,4-b]isoquinoline] | 15 µg/mL | ≥ 50% | 0.016 µg/mL (≈ 0.0507 µM) | –
c1ccc2c(c1)C[C@H]1CSC(=Nc3cccc4cnccc34)N1C2 [Compound 5] | > 60 µg/mL | – | 0.7 µg/mL (≈ 2.11 µM) | 0.7 µg/mL (≈ 2.11 µM)
COc1ncccc1N=C1SC[C@@H]2Cc3ccccc3CN12 [Compound 4, (S)-3-[(2-methoxypyrid-3-yl)-imino]-1,5,10,10a-tetrahydrothiazolo[3,4-b]isoquinoline] | 15 µg/mL | ≥ 50% | 1.5 µg/mL (≈ 4.82 µM) | –
c1cncc(N=C2SC[C@@H]3Cc4ccccc4CN23)c1 [Compound 1] | > 30 µg/mL | – | 0.15 µg/mL (≈ 0.533 µM) | 15 µg/mL (≈ 53.3 µM)
Cc1cc2c(N=C3SC[C@@H]4Cc5ccccc5CN34)cccc2cn1 [Compound 6, (S)-3-(3-methylisoquinol-5-yl)-imino-1,5,10,10a-tetrahydrothiazolo[3,4-b]isoquinoline] | 30 µg/mL | – | 1.5 µg/mL (≈ 4.34 µM) | 1.5 µg/mL (≈ 4.34 µM)
Fc1ncccc1N=C1SC[C@@H]2Cc3ccccc3CN12 [Compound 3, (S)-3-[(2-fluoropyrid-3-yl)-imino]-1,5,10,10a-tetrahydrothiazolo[3,4-b]-isoquinoline] | 15 µg/mL | – | 0.016 µg/mL (≈ 0.0534 µM) | 15 µg/mL (≈ 50.1 µM)
